Series [1] addresses μ-opioid receptor. The conditions noted are these: read-out: μ-opioid receptor affinity (Ki); in vitro, racemic M5; cited from earlier work.
The conditions of series [2]: in vivo, po; cited from earlier work.
The conditions of series [3]: 12 participants, 5 days rifampicin, 100 mg oral tramadol; cited from earlier work.
The conditions of series [4]: for (+)-M1 Cssmax 90% CI (bioequivalence ratio desmetramadol vs tramadol) / (+)-M1 Cssmin 90% CI (bioequivalence ratio desmetramadol vs tramadol) / (−)-M1 Cssmax 90% CI (bioequivalence ratio desmetramadol vs tramadol) / (−)-M1 Cssmin 90% CI (bioequivalence ratio desmetramadol vs tramadol): bioequivalent if within .80 to 1.25.
The test system of series [5] is healthy participants. The series can be described thus: Respiratory rate. To be noted: trial B (with paroxetine), n = 60; MPD (SD).
The test system of series [6] is healthy participants. The series can be described thus: Abuse liability visual analog scales. It counts as in vivo, human. To be noted: trial A, n = 43, 0–100 mm VAS after seventh dose, M (SD).
The subject of series [7] is pupil diameter. As to the kind of experiment: Pupillometry. It counts as in vivo, human. The conditions noted are these: trial A; for Pupil diameter, predose: before first dose of segment.
Series [8] deals with healthy participants. As to the kind of experiment: Drug-related adverse events.
The conditions of series [9]: cited from earlier work.
The subject of series [10] is cold-induced pain. As to the kind of experiment: Cold pressor test. It counts as in vivo, human.
The target in series [11] is norepinephrine transporter. To be noted: read-out: norepinephrine transporter Ki; in vitro functional potency; cited from earlier work.
The test system of series [12] is serotonin reuptake transporter. The conditions noted are these: cited from earlier work.
Where [13] appears, read: trial A, listed as desmetramadol.

Here are results for 5 molecules from PMC6790288 (The journal of pain : official journal of the American Pain …, 2019).

A word on the Ki: it is the equilibrium dissociation constant of an inhibitor or competing ligand from its target.

Like-named read-outs stand apart in the source and are kept apart here.

`CNCC1CCCCC1(O)c1cccc(O)c1` (stereo not shown) [M5, O,N-didesmethyltramadol]: in series [1], the Ki was 100 nM.

For the molecule `COc1ccc2c3c1O[C@H]1C(=O)CC[C@@]4(O)[C@@H](C2)N(C)CC[C@]314` [Oxycodone, oxycodone], the lethal oral dose in series [2] is given as 40 mg.

Take `CN(C)C[C@H]1CCCC[C@]1(O)c1cccc(O)c1` [Desmetramadol, O-desmethyltramadol]: in series [3], the “decrease of AUC by rifampicin induction” value is given as 54% and the “increase of M1 formation rate by rifampicin induction” value was 12%. Moreover, in series [4] (steady state plasma), the “change of (+)-M1 Cssmax, trial B (paroxetine) compared with trial A” value is on record as 41% and the “change of (+)-M1 Cssmin, trial B (paroxetine) compared with trial A” value turned out to be 46%. Moreover, in series [4] (trial A), the “(−)-M1 Cssmin and Cssmax lower for desmetramadol compared with tramadol” value stood at 30%; the “(+)-M1 Cssmax 90% CI (bioequivalence ratio desmetramadol vs tramadol)” value is “.88–1.13”; the “(+)-M1 Cssmin 90% CI (bioequivalence ratio desmetramadol vs tramadol)” value is given as “.85–1.08”; the “(−)-M1 Cssmax 90% CI (bioequivalence ratio desmetramadol vs tramadol)” value was “.67-.76”. Also, in [4] (trial A), the “(−)-M1 Cssmin 90% CI (bioequivalence ratio desmetramadol vs tramadol)” value is listed as “.69-.76”. In series [4] (trial A, CYP2D6 poor metabolizer), the “mean (+)-M1 in the poor metabolizer” value was determined as 41 ng/mL. Besides, the “mean (+)-M1 in the ultrarapid metabolizer” value in series [4] (trial A, CYP2D6 ultrarapid metabolizer) came to 22 ng/mL. The “increase of mean desmetramadol (+)-M1 compared with tramadol (+)-M1” value in [4] (trial A, poor metabolizer) is reported as 650%. Besides, the “decrease of mean desmetramadol (+)-M1 compared with tramadol (+)-M1” value in series [4] (trial A, ultrarapid metabolizer) was 40%. Moreover, in [4] (setting [13]), the “(+)-M1 Cssmax 90% CI (bioequivalence ratio desmetramadol vs tramadol)” value is on record as “.88 −1.13”, the “(+)-M1 Cssmin 90% CI (bioequivalence ratio desmetramadol vs tramadol)” value was “.85−1.08”, the “(−)-M1 Cssmax 90% CI (bioequivalence ratio desmetramadol vs tramadol)” value was “.67 −.76” and the “(−)-M1 Cssmin 90% CI (bioequivalence ratio desmetramadol vs tramadol)” value is reported as “.69−.76”. Also, in series [4] (trial B (with paroxetine)), the “desmetramadol (+)-M1 Cssmin and Cssmax exceed corresponding tramadol values” was determined as 3.5 fold; the “(+)-M1 Cssmax 90% CI (bioequivalence ratio desmetramadol vs tramadol)” value is recorded as 3.4–4.3; the “(+)-M1 Cssmin 90% CI (bioequivalence ratio desmetramadol vs tramadol)” value was 3.4–4.3; the “(−)-M1 Cssmax 90% CI (bioequivalence ratio desmetramadol vs tramadol)” value is “.93–1.07”. Besides, the “(−)-M1 Cssmin 90% CI (bioequivalence ratio desmetramadol vs tramadol)” value in [4] (trial B (with paroxetine)) is recorded as “.95–1.09”. Also, in series [4] (trial B vs trial A), the “increase of steady-state (−)-M1 by paroxetine” value is recorded as “approximately 15%”. Moreover, in [4] (trial B vs trial A, steady state), the “increase of plasma (+)-M1 by paroxetine” value is “approximately 40%”. Besides, the “Average postdose respiratory rate, mean paired difference versus placebo” value in [5] was “−.30 [.90] min^−1”. Also, in series [6], the Drug liking-disliking is 47 (25) mm, the “Strength of drug effect” value is reported as 29 (28) mm and the Take drug again is 43 (26) mm. In addition, in series [6] (listed as desmetramadol), the “Strength of drug effect” value is 29 [28] mm. The “pupil diameter, mean paired reduction compared with placebo” value in series [7] (after dosing, mean (SD)) is listed as −1.1 (.8) mm. Besides, in series [7] (n = 43, M (SD)), the “Pupil diameter, after seventh dose” value is 5.1 (1.2) mm and the “Pupil diameter, predose” value is on record as 6.0 (1.1) mm. Moreover, in series [7] (n = 43, M (SD), listed as desmetramadol), the “Pupil diameter, predose” value was 6.0 [1.1] mm. For the same molecule, in series [8] (trial A), the Deaths is recorded as 0(0) n (%), the “Severe AEs” value is listed as 0 (0) n (%) and the “participants reporting drug-related AEs” value stood at 44%. Further, in [8] (trial A, all), the Dizziness is given as 6(14) n (%), the Euphoria was 0 (0) n (%), the Feel abnormal is given as 0 (0) n (%) and the Feel hot is reported as 0 (0) n (%). For the same molecule, in series [8] (trial A, all), the Headache was 3 (7) n (%), the Nausea is given as 8(19) n (%), the Presyncope is listed as 0 (0) n (%) and the Pruritus was 3 (7) n (%). In series [8] (trial A, all), the Somnolence is recorded as 3 (7) n (%), the Spasticity is 0 (0) n (%), the Sweating is on record as 0 (0) n (%) and the Vomiting was 1 (2) n (%). Further, in series [8] (trial A, male), the Dizziness is listed as 6(14) n (%), the Euphoria is listed as 0 (0) n (%), the Feel abnormal is given as 0 (0) n (%) and the Feel hot is listed as 0 (0) n (%). Further, in series [8] (trial A, male), the Headache is reported as 3 (7) n (%), the Nausea is 8(19) n (%), the Presyncope is on record as 0 (0) n (%) and the Pruritus is 3 (7) n (%). For the same molecule, in series [8] (trial A, male), the Somnolence was 3 (7) n (%), the Spasticity is on record as 0 (0) n (%), the Sweating is reported as 0 (0) n (%) and the Vomiting is recorded as 1 (2) n (%). Also, in [8] (trial A, n = 43 (all male)), the “All drug-related AEs” value is 19 (44) n (%). In [8] (trial B), the Deaths was 0 (0) n (%) and the “Severe AEs” value is 0 (0) n (%). In addition, the “participants reporting drug-related AEs” value in [8] (trial B (with paroxetine)) was 67%. Further, the “All drug-related AEs” value in [8] (trial B (with paroxetine), n = 60) is given as 40 (67) n (%). In [8] (trial B, all), the Dizziness is 12 (20) n (%), the Euphoria is listed as 2 (3) n (%), the Feel abnormal was 3 (5) n (%) and the Feel hot is 3 (5) n (%). Also, in series [8] (trial B, all), the Headache is 10(17) n (%), the Nausea is 16(27) n (%), the Presyncope was 6(10) n (%) and the Pruritus is reported as 4 (7) n (%). In series [8] (trial B, all), the Somnolence is recorded as 10(17) n (%), the Spasticity was 3 (5) n (%), the Sweating was 2 (3) n (%) and the Vomiting is recorded as 9(15) n (%). Also, in [8] (trial B, female), the Dizziness is given as 5 (28) n (%), the Euphoria was 1 (6) n (%), the Feel abnormal is listed as 1 (6) n (%) and the Feel hot was 1 (6) n (%). Besides, in series [8] (trial B, female), the Headache was 6(33) n (%), the Nausea is listed as 5 (28) n (%), the Presyncope was 3(17) n (%) and the Pruritus was 3(17) n (%). In series [8] (trial B, female), the Somnolence is recorded as 6(33) n (%), the Spasticity was 0 (0) n (%), the Sweating is given as 0 (0) n (%) and the Vomiting was 3(17) n (%). Further, in [8] (trial B, male), the Dizziness was 7(17) n (%), the Euphoria is listed as 1 (2) n (%), the Feel abnormal is listed as 2 (5) n (%) and the Feel hot is 2 (5) n (%). For the same molecule, in series [8] (trial B, male), the Headache is 4(10) n (%), the Nausea is recorded as 11 (26) n (%), the Presyncope is 3 (7) n (%) and the Pruritus was 1 (2) n (%). Further, in series [8] (trial B, male), the Somnolence was 4(10) n (%), the Spasticity is reported as 3 (7) n (%), the Sweating is recorded as 2 (5) n (%) and the Vomiting is recorded as 6(14) n (%). Further, the “lethal M1 blood concentrations exceed therapeutic levels” value in series [9] is reported as no more than 50 fold. Also, the “average duration of tolerance to pain” value in series [10] (trial A) is 63 s. The “tolerance to pain, mean paired increase relative to placebo” value in series [10] (trial A, mean [SE]) was 12.6 [3.8] seconds. Besides, the “pain tolerated longer after desmetramadol than after tramadol” value in [10] (trial B (with paroxetine), male participants) was 44%. Further, the “tolerance to pain, mean paired increase relative to placebo” value in series [10] (trial B (with paroxetine), male participants, mean [SE]) was 9.9 [1.9] seconds. In addition, the “change in paired cold-induced pain scores at 30 seconds compared with placebo” value in series [10] (trial B (with paroxetine), male population n = 42, mean [SE]) is “−.75 [.28] 0−10 VAS”.

On to `CC[C@@H](c1cccc(O)c1)[C@@H](C)CN(C)C` [Tapentadol], for which the inhibition constant (Ki) in series [11] was 480 nM. In series [12], the “activity at the serotonin reuptake transporter” value was “no activity”.

Take `COc1ccc2c3c1O[C@H]1C(=O)CC[C@H]4[C@@H](C2)N(C)CC[C@]314` [Hydrocodone, hydrocodone]: in [2], the lethal oral dose was 90 mg.
